Results on two compounds are retold here after US11638712B2, “Bis(acetamidophenyl) guanidinophenylethylphosphonates for use in the prevention and/or treatment of PAR-related diseases” (Universiteit Antwerpen, priority 2016, dated 2023).

In one assay the target is tryptase (Homo sapiens, UniProt Q15661). Put plainly: in vitro serine protease inhibition profile: tryptase. It is filed as biochemical.
For a further assay, the target named is T1, cathepsinG (Homo sapiens, UniProt P08311).
T1 sequence (P08311 21-244): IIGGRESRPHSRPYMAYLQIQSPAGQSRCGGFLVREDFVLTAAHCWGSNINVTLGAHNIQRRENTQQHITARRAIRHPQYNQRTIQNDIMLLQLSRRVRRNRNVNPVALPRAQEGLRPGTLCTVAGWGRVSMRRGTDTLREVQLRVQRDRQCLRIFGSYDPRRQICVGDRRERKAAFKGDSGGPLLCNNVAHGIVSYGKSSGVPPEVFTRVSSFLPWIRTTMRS
Description: in vitro serine protease inhibition profile: cathepsinG. It is filed as biochemical.

The next assay addresses T2, matriptase (Homo sapiens, UniProt Q9Y5Y6).
T2 sequence (Q9Y5Y6 1-855): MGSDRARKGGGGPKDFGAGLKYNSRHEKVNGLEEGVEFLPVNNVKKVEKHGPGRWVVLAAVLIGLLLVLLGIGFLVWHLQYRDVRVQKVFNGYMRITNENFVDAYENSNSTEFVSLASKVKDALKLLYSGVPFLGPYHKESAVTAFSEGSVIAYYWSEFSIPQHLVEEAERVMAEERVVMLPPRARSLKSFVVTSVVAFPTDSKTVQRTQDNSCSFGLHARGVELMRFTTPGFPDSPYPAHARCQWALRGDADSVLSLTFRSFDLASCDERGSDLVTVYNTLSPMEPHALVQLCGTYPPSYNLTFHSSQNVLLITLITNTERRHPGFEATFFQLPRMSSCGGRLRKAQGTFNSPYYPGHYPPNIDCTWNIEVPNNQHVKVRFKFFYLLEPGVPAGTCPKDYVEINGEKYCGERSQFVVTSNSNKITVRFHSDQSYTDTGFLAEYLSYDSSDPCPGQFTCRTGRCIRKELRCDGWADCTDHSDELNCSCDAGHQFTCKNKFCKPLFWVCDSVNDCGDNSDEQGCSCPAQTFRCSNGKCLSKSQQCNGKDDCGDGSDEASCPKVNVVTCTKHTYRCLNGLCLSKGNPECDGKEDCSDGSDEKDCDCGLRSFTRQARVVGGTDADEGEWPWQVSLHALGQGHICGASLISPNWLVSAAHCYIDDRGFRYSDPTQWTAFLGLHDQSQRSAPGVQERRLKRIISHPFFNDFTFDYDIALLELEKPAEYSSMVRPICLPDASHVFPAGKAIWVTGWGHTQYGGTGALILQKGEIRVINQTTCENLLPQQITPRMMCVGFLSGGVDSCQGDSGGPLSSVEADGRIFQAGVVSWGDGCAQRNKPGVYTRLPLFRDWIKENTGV
Put plainly: in vitro serine protease inhibition profile: matriptase. It is filed as biochemical.

For the next assay, the target named is T3, HNE (Homo sapiens, UniProt P08246).
T3 sequence (P08246 30-267): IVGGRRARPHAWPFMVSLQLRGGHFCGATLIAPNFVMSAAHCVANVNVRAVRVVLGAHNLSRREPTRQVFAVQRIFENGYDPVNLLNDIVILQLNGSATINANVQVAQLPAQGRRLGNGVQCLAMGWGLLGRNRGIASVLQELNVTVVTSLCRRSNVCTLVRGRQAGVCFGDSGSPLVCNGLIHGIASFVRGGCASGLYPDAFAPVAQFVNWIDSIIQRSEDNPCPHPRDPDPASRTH
Put plainly: in vitro serine protease inhibition profile: HNE. Type of assay: biochemical.

Assay [1] relates to TNF-α and IL-1α in tear fluid. Description: rat dry eye model, pro-inflammatory cytokines in tear fluid. It is filed as in vivo. As to conditions: dry eye rats. As to the method: (§1) Female Wistar rats (200-300 g, Janvier, Roubaix, France) were kept under standard pathogen-free conditions. Husbandry conditions: room temperature 20-25° C., humidity 50-60% and a day-night cycle of 12 h light/12 h dark. Food and water were available ad libitum. All in vivo manipulations were approved by the Animal Ethical Committee of the University of Antwerp (2013-67) and are in accordance to the ARRIVE guidelines for the use of animals in ophthalmic and vision research.
(§2) To remove the gland, a small incision was made beneath the right ear. The lacrimal glands of the left eye were kept intact, leaving each animal with its own individual control and eliminating the need for extra control groups. Progression of dry eye was monitored for 24 days and tear volume measurements and fluorescein staining were performed once a week. Tears were collected twice a week.
Tear fluid was collected once a week with 10 μl capillaries (Blaubrand® Intramark, Wertheim, Germany) connected with a flexible tube to a syringe. […]
TNF-α and IL-1α concentrations in tear fluid were measured flow cytometrically (FACS calibur, BD Biosciences), using Cytometric Bead Array (CBA) according to the manufacturers protocol (Rat IL-1α and TNF-α CBA flex sets, BD Biosciences, Erembodegem Belgium.
Tear fluid was obtained twice a week. Tear volume and tissue damage was evaluated once a week. […]

A short description of assay [2]: rat dry eye model, aqueous tear production (phenol red thread). It is filed as in vivo. The following applies: dry eye rats, 2 concentrations. As for the experimental part:
as §1, §2
A phenol red thread (Zone Quick®, Menicon Co. Ltd, Nagoya, Japan) was placed in the lateral cantus of the conjunctival fornix for 15 seconds. […] Tear fluid volumes were measured once a week.
Tear fluid was obtained twice a week. Tear volume and tissue damage was evaluated once a week. Animals were treated with Restasis® (2×/day), UAMC50, UAMC1162, UAMC1169/vehicle (2×/day) for 3 consecutive weeks. Compounds 1, 2 and 4 were formulated as follows: […]

tryptase, sequence (Q15661 31-275): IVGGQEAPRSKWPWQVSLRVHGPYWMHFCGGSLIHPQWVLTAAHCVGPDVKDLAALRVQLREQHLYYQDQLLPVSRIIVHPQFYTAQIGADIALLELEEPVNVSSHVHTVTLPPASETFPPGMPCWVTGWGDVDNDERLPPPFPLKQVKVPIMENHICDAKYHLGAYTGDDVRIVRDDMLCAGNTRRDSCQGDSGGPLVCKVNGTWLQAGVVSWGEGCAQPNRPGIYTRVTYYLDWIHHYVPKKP

As to `COC(=O)NC(Cc1ccc(NC(=N)N)cc1)P(=O)(Oc1ccccc1)Oc1ccccc1` (centres unmarked) [Compound 1], the IC50 against tryptase is 93 nM; on cathepsinG, 329 nM; on matriptase, 82 nM; against HNE, above 2500 nM.

`CC(=O)Nc1ccc(OP(=O)(Oc2ccc(NC(C)=O)cc2)C(Cc2ccc(NC(=N)N)cc2)NC(=O)OCc2ccccc2)cc1` (centres unmarked) [Compound 4]: the IC50 against tryptase is 5 nM; at cathepsinG it was 120 nM; at matriptase, 3 nM; on HNE, above 2500 nM. For the same compound, the “anti-inflammatory effect on IL-1α and TNF-α in tear fluid” value in assay [1] (5 mM) is “significant anti-inflammatory effect”; in assay [1] (two concentrations, compared with Restasis, FIGS. 6 and 7), “overall stronger anti-inflammatory effect and faster onset of action effect than Restasis©”. Further, the “effect on tear volume” value in assay [2] is given as “no significant effects have been observed on tear volume”.
